Data as given in patent publication US20250353891A1 (MEDIMMUNE LIMITED, priority 2022, published 2025).
Where two headings read alike, the source gives them in different places. Starred links: 1 amine or outer side, 2 acyl side, 3 side chain; linkers in the order of their positions; H or OH if unused. Non-standard residues stand in square brackets, D forms with d. Residues, ends and D or L forms follow the SMILES beside them. Groups on a side chain read outwards from the residue. *: point of attachment. C20 diacid = O=C(O)CCCCCCCCCCCCCCCCCCC(=O)*; C18 diacid = O=C(O)CCCCCCCCCCCCCCCCC(=O)*; γGlu = O=C(O)[C@H](CCC(=O)[*:2])N[*:1]; αMeF = C[C@](N)(Cc1ccccc1)C(=O)O; AEEA = NCCOCCOCC(=O)O; Aib = CC(C)(N)C(=O)O

Key:
[1] = target: human glucagon receptor (hGCGR) (Homo sapiens, UniProt P47871); test: cAMP production (HTRF) in CHO cells expressing hGCGR; type: cell-based; parameters: expressed in transfected cells; details: cAMP, CHO cells, 0.1% BSA, geometric mean
Sequence of human glucagon receptor (hGCGR) (P47871 26-477): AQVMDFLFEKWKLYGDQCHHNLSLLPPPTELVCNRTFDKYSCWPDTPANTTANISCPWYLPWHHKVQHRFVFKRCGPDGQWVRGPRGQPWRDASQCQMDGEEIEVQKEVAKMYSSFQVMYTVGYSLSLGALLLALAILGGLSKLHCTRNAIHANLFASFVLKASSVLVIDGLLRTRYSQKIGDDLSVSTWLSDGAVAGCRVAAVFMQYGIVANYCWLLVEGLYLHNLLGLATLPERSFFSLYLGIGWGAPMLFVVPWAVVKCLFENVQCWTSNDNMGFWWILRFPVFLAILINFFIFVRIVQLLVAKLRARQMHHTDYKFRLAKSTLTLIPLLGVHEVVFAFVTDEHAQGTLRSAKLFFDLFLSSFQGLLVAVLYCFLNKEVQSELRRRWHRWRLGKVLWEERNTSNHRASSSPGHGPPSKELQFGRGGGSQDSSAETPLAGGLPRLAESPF
Summary of the method: (§1)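 Read-out: HTRF cAMP (anti-cAMP cryptate donor, cAMP-d2 acceptor in conjugate/lysis buffer), converted to % Delta F and fitted by 4-parameter logistic for EC50. Cell densities were 1×10^5 cells/mL (hGLP-1R) or 2×10^5 cells/mL (hGCGR). Stimulation lasted 30 min at room temperature.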

[2] = target: human GLP-1 receptor (hGLP-1R) (Homo sapiens, UniProt P43220); test: cAMP production (HTRF) in CHO cells expressing hGLP-1R; type: cell-based; parameters: expressed in transfected cells; details: for EC50: cAMP, CHO cells, 0.1% BSA, geometric mean, read-out: hGLP-1R EC50
Sequence of human GLP-1 receptor (hGLP-1R) (P43220 24-463): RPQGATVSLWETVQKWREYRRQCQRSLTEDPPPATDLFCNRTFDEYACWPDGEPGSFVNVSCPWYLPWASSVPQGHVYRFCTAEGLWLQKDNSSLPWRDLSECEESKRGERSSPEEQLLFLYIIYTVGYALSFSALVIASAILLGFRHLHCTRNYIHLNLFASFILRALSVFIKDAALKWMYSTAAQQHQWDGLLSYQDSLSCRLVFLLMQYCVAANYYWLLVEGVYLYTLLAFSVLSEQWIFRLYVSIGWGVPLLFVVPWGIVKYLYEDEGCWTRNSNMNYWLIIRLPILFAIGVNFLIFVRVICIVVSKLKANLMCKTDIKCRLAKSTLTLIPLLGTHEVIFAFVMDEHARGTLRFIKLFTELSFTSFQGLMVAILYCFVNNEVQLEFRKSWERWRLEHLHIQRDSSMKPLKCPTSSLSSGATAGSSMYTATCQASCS
Summary of the method: as §1

[3] = % GLP-1R activity relative to GLP-1 / % GlucR activity relative to glucagon

| Structure (SMILES) | EC50 ([1]; read-out: hGluc-R EC50) [pM] | % Relative Potency Ratio [2, 3] | EC50 [2] [nM] | EC50 ([1]; hGluc-R EC50 (pM)) [pM] | % Relative Potency Ratio [2] |
| --- | --- | --- | --- | --- | --- |
| CC[C@H](C)[C@H](NC(=O)[C@H](Cc1c[nH]c2ccccc12)NC(=O)[C@H](CCCCNC(=O)COCCOCCNC(=O)COCCOCCNC(=O)CC[C@H](NC(=O)CC[C@H](NC(=O)CCCCCCCCCCCCCCCCC(=O)O)C(=O)O)C(=O)O)NC(=O)[C@@H](NC(=O)[C@H](Cc1ccccc1)NC(=O)[C@H](CC(=O)O)NC(=O)[C@H](CCC(N)=O)NC(=O)[C@H](C)NC(=O)[C@H](C)NC(=O)[C@H](CCCNC(=N)N)NC(=O)[C@H](CO)NC(=O)[C@H](CC(=O)O)NC(=O)[C@H](CC(C)C)NC(=O)[C@](C)(Cc1ccccc1)NC(=O)[C@H](CCCCN)NC(=O)[C@H](CO)NC(=O)[C@@H](NC(=O)[C@H](CC(=O)O)NC(=O)[C@H](CO)NC(=O)[C@@H](NC(=O)[C@](C)(Cc1ccccc1)NC(=O)[C@H](CO)NC(=O)CNC(=O)[C@H](Cc1c[nH]cn1)NC(=O)C(C)(C)NC(=O)[C@@H](N)Cc1c[nH]cn1)[C@@H](C)O)C(C)C)C(C)C)C(=O)N[C@@H](C)C(=O)N[C@@H](CC(N)=O)C(=O)N[C@H](C(=O)NCC(N)=O)[C@@H](C)O [Peptide 363] (H-H[Aib]HGS[αMeF]TSDVSK[αMeF]LDSRAAQDFVK([AEEA-AEEA-γGlu-γGlu-C18 diacid])WIANTG-NH2; N-terminus assumed) | 47.5 | 5.1 | 0.0183 |  |  |
| CC[C@H](C)[C@H](NC(=O)[C@H](Cc1c[nH]c2ccccc12)NC(=O)[C@H](CCCCNC(=O)COCCOCCNC(=O)COCCOCCNC(=O)CC[C@H](NC(=O)CCCCCCCCCCCCCCCCC(=O)O)C(=O)O)NC(=O)[C@@H](NC(=O)[C@H](Cc1ccccc1)NC(=O)[C@H](CC(=O)O)NC(=O)[C@H](CCC(N)=O)NC(=O)[C@H](C)NC(=O)C(C)(C)NC(=O)[C@H](CCCNC(=N)N)NC(=O)[C@H](CO)NC(=O)[C@H](CC(=O)O)NC(=O)[C@H](CC(C)C)NC(=O)[C@](C)(Cc1ccccc1)NC(=O)[C@H](CCCCN)NC(=O)[C@H](CO)NC(=O)[C@@H](NC(=O)[C@H](CC(=O)O)NC(=O)[C@H](CO)NC(=O)[C@@H](NC(=O)[C@](C)(Cc1ccccc1)NC(=O)[C@H](CO)NC(=O)CNC(=O)[C@H](Cc1c[nH]cn1)NC(=O)C(C)(C)NC(=O)[C@@H](N)Cc1c[nH]cn1)[C@@H](C)O)C(C)C)C(C)C)C(=O)N[C@@H](C)C(=O)N[C@@H](CC(N)=O)C(=O)N[C@H](C(N)=O)[C@@H](C)O [Peptide 365, H(Aib)HGS(αMePhe)TSDVSK(αMePhe)LDSR(Aib)AQDFVK(O2Oc-O2Oc-γE-C18diacid)24WIANT-amide] (H-H[Aib]HGS[αMeF]TSDVSK[αMeF]LDSR[Aib]AQDFVK([AEEA-AEEA-γGlu-C18 diacid])WIANT-NH2; N-terminus assumed) |  |  | 0.0513 | 8.77 | 0.3 |

Further lines, with some results ahead:

| EC50 ([1]; read-out: hGluc-R EC50) [pM] | % Relative Potency Ratio [2, 3] | EC50 [2] [nM] | Structure (SMILES) | EC50 ([1]; hGluc-R EC50 (pM)) [pM] | % Relative Potency Ratio [2] |
| --- | --- | --- | --- | --- | --- |
| 290 | 3.1 | 0.186 | CC[C@H](C)[C@H](NC(=O)[C@H](Cc1c[nH]c2ccccc12)NC(=O)[C@H](CCCCNC(=O)COCCOCCNC(=O)COCCOCCNC(=O)CC[C@H](NC(=O)CCCCCCCCCCCCCCCCCCC(=O)O)C(=O)O)NC(=O)[C@@H](NC(=O)[C@H](Cc1ccccc1)NC(=O)[C@H](CC(=O)O)NC(=O)[C@H](CCC(N)=O)NC(=O)[C@H](C)NC(=O)C(C)(C)NC(=O)[C@H](CCCNC(=N)N)NC(=O)[C@H](CO)NC(=O)[C@H](CC(=O)O)NC(=O)[C@H](CC(C)C)NC(=O)[C@](C)(Cc1ccccc1)NC(=O)[C@H](CCCCN)NC(=O)[C@H](CO)NC(=O)[C@@H](NC(=O)[C@H](CC(=O)O)NC(=O)[C@H](CO)NC(=O)[C@@H](NC(=O)[C@](C)(Cc1ccccc1)NC(=O)[C@H](CO)NC(=O)CNC(=O)[C@H](Cc1c[nH]cn1)NC(=O)C(C)(C)NC(=O)[C@@H](N)Cc1c[nH]cn1)[C@@H](C)O)C(C)C)C(C)C)C(=O)N[C@@H](C)C(=O)N[C@@H](CC(N)=O)C(=O)N[C@H](C(N)=O)[C@@H](C)O [Peptide 368, H(Aib)HGS(αMePhe)TSDVSK(αMePhe)LDSR(Aib)AQDFVK(O2OC-O2OC-γE-C20diacid)24WIANT-amide] (H-H[Aib]HGS[αMeF]TSDVSK[αMeF]LDSR[Aib]AQDFVK([AEEA-AEEA-γGlu-C20 diacid])WIANT-NH2) |  |  |
| 202 | 3.8 | 0.104 | CC[C@H](C)[C@H](NC(=O)C(C)(C)NC(=O)[C@H](CCCCNC(=O)COCCOCCNC(=O)COCCOCCNC(=O)CC[C@H](NC(=O)CCCCCCCCCCCCCCCCCCC(=O)O)C(=O)O)NC(=O)[C@@H](NC(=O)[C@H](Cc1ccccc1)NC(=O)[C@H](CC(=O)O)NC(=O)[C@H](CCC(N)=O)NC(=O)[C@H](C)NC(=O)[C@H](C)NC(=O)[C@H](CCCNC(=N)N)NC(=O)[C@H](CO)NC(=O)[C@H](CC(=O)O)NC(=O)[C@H](CC(C)C)NC(=O)[C@](C)(Cc1ccccc1)NC(=O)[C@H](CCCCN)NC(=O)[C@H](CO)NC(=O)[C@@H](NC(=O)[C@H](CC(=O)O)NC(=O)[C@H](CO)NC(=O)[C@@H](NC(=O)[C@](C)(Cc1ccccc1)NC(=O)[C@H](CO)NC(=O)CNC(=O)[C@H](Cc1c[nH]cn1)NC(=O)C(C)(C)NC(=O)[C@@H](N)Cc1c[nH]cn1)[C@@H](C)O)C(C)C)C(C)C)C(=O)N[C@@H](C)C(=O)N[C@@H](CC(N)=O)C(=O)N[C@H](C(N)=O)[C@@H](C)O [Peptide 369] (H-H[Aib]HGS[αMeF]TSDVSK[αMeF]LDSRAAQDFVK([AEEA-AEEA-γGlu-C20 diacid])[Aib]IANT-NH2; N-terminus assumed) |  |  |
| 182 | 1.1 | 0.323 | CC[C@H](C)[C@H](NC(=O)[C@H](Cc1c[nH]c2ccccc12)NC(=O)[C@H](CCCCNC(=O)COCCOCCNC(=O)COCCOCCNC(=O)CC[C@H](NC(=O)CCCCCCCCCCCCCCCCC(=O)O)C(=O)O)NC(=O)[C@@H](NC(=O)[C@](C)(Cc1ccccc1)NC(=O)[C@H](CC(=O)O)NC(=O)[C@H](CCC(N)=O)NC(=O)[C@H](C)NC(=O)[C@H](C)NC(=O)[C@H](CCC(N)=O)NC(=O)[C@H](CO)NC(=O)[C@H](CC(=O)O)NC(=O)[C@H](CC(C)C)NC(=O)[C@](C)(Cc1ccccc1)NC(=O)[C@H](CCCCN)NC(=O)[C@H](CO)NC(=O)[C@@H](NC(=O)[C@H](CC(=O)O)NC(=O)[C@H](CO)NC(=O)[C@@H](NC(=O)[C@](C)(Cc1ccccc1)NC(=O)[C@H](CO)NC(=O)CNC(=O)[C@H](Cc1c[nH]cn1)NC(=O)C(C)(C)NC(=O)[C@@H](N)Cc1c[nH]cn1)[C@@H](C)O)C(C)C)C(C)C)C(=O)N[C@@H](C)C(=O)N[C@@H](CC(N)=O)C(=O)N[C@H](C(N)=O)[C@@H](C)O [Peptide 370] (H-H[Aib]HGS[αMeF]TSDVSK[αMeF]LDSQAAQD[αMeF]VK([AEEA-AEEA-γGlu-C18 diacid])WIANT-NH2; N-terminus assumed) |  |  |
